What was measured:
Format in all cases: cell-based, human
[1] = test system: U937 cell adhesion to HAEC; experiment: Flow adhesion assay: U937 cell adhesion to TNF-α activated HAEC; conditions: shear stress 1.8 dynes/cm^2
Experimental: U937 cells (American Type Culture Collection; Manassas, Va.) are cultured in RPMI supplemented with 8% FBS, 2 mM L-glutamine, 100 units/ml penicillin and 100 μg/ml streptomycin. For the adhesion assays, U937 cells are washed, resuspended to 1×10^8 cells/ml in RPMI and held on ice (<4 hrs.) until the time they are used in the flow adhesion assay.
Flow adhesion assays: A parallel plate flow chamber (Glycotech; Rockville, Md.), similar to that described by McIntire, Smith and colleagues (34) is used in this study. Our particular set up has been described previously (20). A 35-mm tissue culture dish containing a confluent HAEC monolayer is loaded into the flow chamber. After a brief rinse, U937 cells (5*10^5 cells/ml in assay buffer) are drawn over the HAEC monolayer at a shear stress of 1.8 dynes/cm^2. To determine U937 cell accumulation, the number of U937 cells adherent (either rolling or firmly adherent) to the HAEC monolayer in 8 different fields of view after 2.5 minutes of flow is determined, averaged and normalized to the area of the field of view to give the result for that particular run. Such an assay is done at least 3 times. In certain experiments, TNF-α activated HAEC, in the absence or presence of C-10, are treated with mAbs HEL3/2 or 51-10C9 (10 μg/ml) or a combination of HEL3/2 and 51-10C9. […]

[2] = test system: ICAM-1; experiment: TNF-α induced ICAM-1 mRNA in HAEC (Northern blot)
Experimental: (§1) Cell culture and treatment of HAEC: Human aortic endothelial cells (HAEC; Cambrex Bio Science Walkersville, Inc., Walkersville, Md.) are cultured in M199 supplemented with 8% FBS, 100 μg/ml heparin, 10 ng/ml endothelial growth factor, 100 μg/ml hypothalamus extract, 2 mM L-glutamine, 1% non-essential amino acids, 100 units/ml penicillin and 100 μg/ml streptomycin. HAEC are subcultured on gelatin pre-coated: 96-well tissue culture plates (Corning Incorporated; Corning, N.Y.) for viability assays and ELISA; 100-mm tissue culture dishes (BD Falcon; Franklin Lakes, N.J.) for Northern blot analyses, Western blot analyses and EMSA; 35-mm tissue culture dishes (Corning) for adhesion assays and on 24-well tissue culture plates for luciferase promoter assays (BD Falcon). All experiments are performed with confluent HAEC monolayers. Unless noted otherwise, HAEC are treated with 25 ng/ml TNF-α, in the absence or presence of C-10 or 0.25% DMSO (carrier control for C-10), for 2-24 hrs. The concentration of DMSO is held constant at 0.25% (unless indicated otherwise) for all of the C-10 conditions.
(§2) HAEC are washed with PBS and total RNA extracted using a commercial kit (RNeasy Mini Kit; Qiagen Inc.; Valencia, Calif.). 12 μg of total RNA per lane is resolved on 1% denaturing agarose gels containing 0.66M formaldehyde. […]

[3] = test system: VCAM-1 promoter; experiment: TNF-alpha-induced VCAM-1 promoter activity, dual luciferase reporter assay in HAEC
Experimental: as §1
Dual Luciferase Assay: Four human VCAM-1 promoter deletion constructs of different length, −1641/+12, −288/+12, −228/+12, −85/+12 bp are amplified by PCR from human genomic DNA. Each upstream primer contained a restriction endonuclease Mlu I site located at the 5′-end of the primer. The downstream primer corresponding to the +12 end contained a restriction endonuclease Xho I site at the 5′-end. The PCR products are digested by Mlu I and Xho I (New England Biolabs Inc., Beverly, Mass.) and ligated into a similarly digested pGL3 basic luciferase reporter vector (Promega, Madison, Wis.). Cells are transfected for 24 hrs. with 400 ng of indicated constructs, or pGL3 basic luciferase reporter vector as control, using GeneJuice transfection reagent (Novagen Inc., Madison, Wis.). All cells are also transfected with phRL-TK (Int−) vector (Promega), which contains wildtype Renilla luciferase (Rluc) as an “internal” transfection control. Luciferase assays are conducted with the Dual-Luciferase Reporter Assay System (Promega) on a Lumat LB 9507 tube luminometer. In every experiment, each condition is run in triplicate wells. Each experiment is replicated at least twice.

[4] = test system: E-selectin; experiment: TNF-α induced E-selectin mRNA in HAEC (Northern blot)
Experimental: as §1, §2

[5] = test system: VCAM-1; experiment: ELISA of TNF-α induced VCAM-1 protein on HAEC
Experimental: as §1
(§3) HAEC are washed with cold HBSS+, fixed in 1% formaldehyde at 4° C. for 20 min., washed with cold HBSS+, and incubated in cold M199 containing 8% FBS. Unless otherwise noted, from this point on all antibody dilutions and washes are carried out with M199 containing 8% FBS. Murine mAbs (primary mAbs) to ECAMs are added (10 μg/ml) and the HAEC incubated at 4° C. for 20 min. Following the incubation, the wells are washed and a peroxidase conjugated polyclonal (secondary) antibody to mouse IgG is added (diluted 1:50). After a 20 min. incubation at 4° C., the wells are washed and treated with OPD dissolved in phosphate citrate buffer containing sodium perborate. Following a 10 min. incubation at room temperature, the absorbance of the fluid in each well is determined at 450 nm using a micro-well plate spectrophotometer (Molecular Devices; Sunnyvale, Calif.). In every experiment, each condition is run in triplicate wells.

[6] = test system: IRF-1; experiment: TNF-alpha-induced IRF-1 RNA levels (Northern blot); conditions: for % INIHIBITION of TNF-alpha-induced IRF-1 RNA levels: mean ± SD
Experimental: as §1
HAEC are washed with PBS and total RNA extracted using a commercial kit (RNeasy Mini Kit; Qiagen Inc.; Valencia, Calif.). 12 μg of total RNA per lane is resolved on 1% denaturing agarose gels containing 0.66M formaldehyde. Gels are capillary blotted on Nytran membranes (Schleicher and Schuell Inc.; Keene, N.H.), UV cross-linked, and used for hybridization. The probe for IRF-1 has been previously described (33). The G3PDH cDNA is from Clontech (Palo Alto, Calif.). […]; cDNAs are labeled with α-^32P-dCTP using the Ladderman Labeling Kit (Takara Biochemical Inc.; Berkeley, Calif.) (33). Northern blots are developed using a BAS 1500 Bioimaging Analyzer (Fuji Photo Film Co., Ltd. Medical Systems USA Inc.; Stanford, Calif.). Each experiment is replicated at least twice.

[7] = test system: E-selectin; experiment: ELISA of TNF-α induced E-selectin protein on HAEC
Experimental: as §1, §3

With `Cn1c(-c2ccccc2)cnc1S` [5-Phenylmethimazole] the “effect on TNF-α induced U937 cell adhesion to HAEC” value ([1]; 4 hr. TNF-α, C-10 0.5 mM, mAbs 10 μg/ml) was “little effect”, the “effect on TNF-α induced U937 cell adhesion to HAEC” value ([1]; 24 hr. TNF-α, C-10 0.1 mM alone vs. DMSO) was “significantly reduced” and the “effect on TNF-α induced ICAM-1 mRNA expression” value ([2]; 2 hr. TNF-α) was “no effect”. The “effect on TNF-α induced ICAM-1 mRNA expression” value ([2]; 24 hr. TNF-α) was “little to no effect”, the “effect on TNF-α induced promoter activities of the four VCAM-1 constructs” value ([3]; 0.3 mM, 10 ng/ml TNF-α 6 hrs., −1641/+12, −288/+12, −228/+12, −85/+12 bp constructs) was “inhibits” and the “% INHIBITION of TNF-alpha-induced VCAM-1 promoter activity” value ([3]; 10 :M, hVCAM-1(−228 to +12)-luciferase construct, mean ± SD) was 31 ± 5%. The “% INHIBITION of TNF-alpha-induced VCAM-1 promoter activity” value ([3]; 100 :M, hVCAM-1(−228 to +12)-luciferase construct, mean ± SD) was 61 ± 3%, the inhibition at 5000 µM ([3]; Homo sapiens, 5.0 mM, hVCAM-1(−228 to +12)-luciferase construct, mean ± SD) was 72 ± 3% and the “effect on TNF-α induced E-selectin mRNA expression” value ([4]; 2 hr. TNF-α) was “marginal effect”. The “effect on TNF-α induced E-selectin mRNA” value ([4]; 24 hr. TNF-α) was “reduced, in a dose dependent manner”, the “concentration at which significant reduction of TNF-α induced VCAM-1 protein expression is observed” value ([5]; 4 hr. TNF-α) was at least 0.25 mM and the “effect on TNF-α induced protein expression of VCAM-1” value ([5]; 4 hr. TNF-α) was “significantly reduces”. The “concentration at which significant reduction of TNF-α induced VCAM-1 protein expression is observed” value ([5]; 24 hr. TNF-α) was at least 0.05 mM, the “effect on TNF-α induced protein expression of VCAM-1” value ([5]; 24 hr. TNF-α) was “significantly reduces” and the “effect on TNF-α induced IRF-1 mRNA expression in HAEC” value ([6]; 0.5 mM or 1 mM, 2 hr. TNF-α) was “reduces”. For the same compound, the “% INIHIBITION of TNF-alpha-induced IRF-1 RNA levels” value (shortened to “% INIHIBITION”) ([6]; 5 mM) was 95 ± 15%, the “% INIHIBITION” value ([6]; 10 :M) was 65 ± 16% and the “% INIHIBITION” value ([6]; 100 :M) was 90 ± 17%. For the same compound, the “effect on TNF-α induced protein expression of E-selectin” value ([7]; 4 hr. TNF-α) was “little to no effect”, the “concentration at which significant reduction of TNF-α induced E-selectin protein expression is observed” value ([7]; 24 hr. TNF-α) was at least 0.05 mM and the “effect on TNF-α induced protein expression of E-selectin” value ([7]; 24 hr. TNF-α) was “significantly reduces”.

— US20050209295A1, “Methimazole derivatives and tautomeric cyclic thiones to inhibit cell adhesion” (priority 2004, published 2005)
